Source: US4578380A, “5H-[1]benzopyrano[2,3-d]pyrimidine derivatives useful for controlling lesions of the gastric and duodenal mucous membranes” (Warner-Lambert Company, priority 1983, dated 1986)

Experiments:
[1] = system: Indomethacin-Induced Ulcer; assay: Indomethacin-Induced Ulcer; assay type: in vivo, male rats (Sprague Dawley SIV 50); conditions: rat
Protocol: 1. Indomethacin-Induced Ulcer Test animals were male rats (Sprague Dawley SIV 50) weighing between 150-200 g. The animals were kept fasting 24 hours before starting the test, drinking water being available ad libitum. The animals were alloted to three groups, each group comprising ten rats. […] Five hours following administration the animals were killed with CO2 gas, the stomachs removed and opened along the greater curvature. After measuring the pH value the stomach was tested for ulcerations under a stereo magnifying glass. The method described by Chaumontet, et al. Arzneimittelforschung/Drug Research 28 (II) pp 2119-2121 (1978) was used to rate the ulcerations and calculate the ulcer index (UI). The effect of the substances was rendered as the percentage inhibition of the ulcers caused by indomethacin in comparison to the untreated reference group.

Gastric Acid Secretion = assay: Test for the Inhibition of the Gastric Acid Secretion According to Ghosh and Schild; assay type: in vivo, male rats (Sprague Dawley SIV 50); conditions: rat
Protocol: 3. Test for the Inhibition of the Gastric Acid Secretion According to Ghosh and Schild (Brit. J. Pharmacol. 13 pp 54-61 (1958) The test animals were male rats (Sprague Dawley SIV 50) weighing between 300-450 g. The animals were kept fasting 24 hours before starting the test, water being available ad libitum. The animals were anesthetized with 1.25 g/kg urethane IP. Trachea, vena jugularis, arteria carotis, and oesophagus were exposed, and a fistula placed at the pylorus. Via an oesophagus tube the stomach was perfused with 1/4000 N NaOH at a flow rate of 3 ml/min. By means of the NaOH perfusion the pH of the gastric juice was adjusted to about pH 7 and continuously measured with a measuring electrode. Via the vena jugularis the acid-stimulating substance (carbachol 0.25 μg/kg/min or pentagastrin 1 μg/kg/min) was infused.

Cold-Stress Ulcer = assay: Cold-Stress Ulcer; assay type: in vivo, male rats (Sprague Dawley SIV 50); conditions: rat
Protocol: 2. Cold-Stress Ulcer Test animals were male rats (Sprague Dawley SIV 50) weighing between 110 and 150 g. The animals were kept fasting 24 hours before starting the test, drinking water being available ad libitum. […] Immediately after administration of the substances the animals were anesthetized with […] on their backs, fixed with adhesive tapes to wooden boards. Thus rendered immobile the animals were put into a permanently lit room, ambient temperature +15° C., relative humidity 50-60%, for 14 hours. After this time of exposure the rats were killed with CO2, the stomachs removed and opened along the greater curvature. After measuring the pH value the gastric mucosa was tested for ulcerations under a stereo magnifying glass. The ulcerations were rated and the ulcer index (UI) calculated as described for test 1, the effect of the substances being expressed as the percentage inhibition of the ulcer formation in comparison to the untreated control group.

gastric mucous membrane = conditions: cited from earlier work
[2] = 250 mg/kg (dose column: i.g.; method: duodenal catheter)
[3] = 125 mg/kg (dose column: i.g.; method: duodenal catheter)

Q: For `Cc1ccc(-c2nc3c(c(SCCCN4CCOCC4)n2)Cc2ccccc2O3)cc1` [Compound (26), 2-(4-methylphenyl)-4-(3-morpholinopropylthio)-5H-[1]benzopyrano[2,3-d]pyrimidine], which “Protective Action in %, "Indomethacin" ulcer model” value ([1]; 250 mg/kg i.g.) is on record?
A: 50%

Q: And the “Antisecretion (Gosh + Schild Model)” value (Gastric Acid Secretion; [2])?
A: No effect

Q: With `CN(C)CCCSc1nc(-c2ccccc2)nc2c1Cc1ccccc1O2` [Compound (1), 4-(3-dimethylaminopropylthio)-2-phenyl-5H-[1]benzopyrano[2,3-d]pyrimidine] as the molecule, how does the “Protective Action in %, "Indomethacin" ulcer model” value ([1]; 125 mg/kg i.g.) read?
A: 88%

Q: And the “Protective Action in %, "Indomethacin" ulcer model” value ([1]; 250 mg/kg i.g.)?
A: 95%

Q: And the “Protective Action in %, "Stress" ulcer model” value (Cold-Stress Ulcer; 125 mg/kg i.g.)?
A: 70%

Q: And the “Protective Action in %, "Stress" ulcer model” value (Cold-Stress Ulcer; 250 mg/kg i.g.)?
A: 86%

Q: What about the “Antisecretion (Gosh + Schild Model)” value (Gastric Acid Secretion; [3]) of the same molecule?
A: No effect

Q: What about the “Antisecretion (Gosh + Schild Model)” value (Gastric Acid Secretion; [2]) of the same molecule?
A: No effect

Q: Which results are given for `Cc1ccc(-c2nc3c(c(SCCCN(C)C)n2)Cc2ccccc2O3)cc1` [Compound (16)]?
A: Protective Action in %, "Indomethacin" ulcer model ([1]; 125 mg/kg i.g.): 83%; Protective Action in %, "Indomethacin" ulcer model ([1]; 250 mg/kg i.g.): 99.5%; Protective Action in %, "Stress" ulcer model (Cold-Stress Ulcer; 125 mg/kg i.g.): 72%; Antisecretion (Gosh + Schild Model) (Gastric Acid Secretion; [3]): No effect; Antisecretion (Gosh + Schild Model) (Gastric Acid Secretion; [2]): No effect

Q: With `CNCCCSc1nc(-c2ccc(C)cc2)nc2c1Cc1ccccc1O2` [Compound (27a), 4-(3-methylaminopropylthio)-2-(4-methylphenyl)-5H-[1]benzopyrano[2,3-d]pyrimidine] as the molecule, how does the “Protective Action in %, "Indomethacin" ulcer model” value ([1]; 250 mg/kg i.g.) read?
A: 94%

Q: What about the “Antisecretion (Gosh + Schild Model)” value (Gastric Acid Secretion; [2]) of the same molecule?
A: No effect

Q: Which results are given for `CN/C(=N/CCSCc1nc[nH]c1C)NC#N` [Cimetidine, reference compound]?
A: Protective Action in %, "Indomethacin" ulcer model ([1]; 100 mg/kg i.g.): 80%; Protective Action in %, "Indomethacin" ulcer model ([1]; 200 mg/kg i.g.): 89%; Protective Action in %, "Indomethacin" ulcer model ([1]; 3 × 100 mg/kg i.g.): 39%; Protective Action in %, "Stress" ulcer model (Cold-Stress Ulcer; 100 mg/kg i.g.): 53%; Protective Action in %, "Stress" ulcer model (Cold-Stress Ulcer; 200 mg/kg i.g.): 54%; Antisecretion (Gosh + Schild Model): pH reached (Gastric Acid Secretion; 5 mg/kg i.v., after 35 min): 7.9 pH; Antisecretion (Gosh + Schild Model): time after which pH 7.9 was reached (Gastric Acid Secretion; 5 mg/kg i.v.): 35 min; undesired side effects (gastric mucous membrane; general statement in therapy): undesired CNS and other side effects; changes of the gastric mucous membrane / relapse ulcers (gastric mucous membrane; long-term treatment, following discontinuation): changes of the gastric mucous membrane found under long-term treatment
